Reference: publication PMC11279551, “Pharmacokinetics and Enterohepatic Circulation of 2-(Quinoline-8-carboxamido)benzoic Acid (2-QBA) in Mice” (Pharmaceutics, 2024)

What was measured:
[1] = Intestinal permeability in Ussing chamber; assay type: in vitro ADME, mice; conditions: mouse, pH 7.4; range over intestinal segments, n = 3; read-out: permeability of marker compounds
Experimental: The small intestines were isolated from fasted mice under isoflurane anesthesia (1–3% with oxygen gas flow) and dissected into three parts, the jejunum, upper ileum, and lower ileum. […] The intestinal permeability of 2-QBA was assessed by adding 0.5 mL of HBSS containing 20 μM of 2-QBA on the donor side and 0.5 mL of fresh HBSS on the receiver side. Then, a 100 μL aliquot was withdrawn from the receiver side every 30 min for 2 h and an equal volume of pre-warmed fresh HBSS was added to replenish the lost volume. To analyze the 2-QBA, 100 μL aliquots were mixed with 4 volumes of IS solution (1 ng/mL berberine in acetonitrile). The mixture was vigorously vortexed for 5 min and then centrifuged at 13,000× g for 5 min. The supernatant was transferred to autosampler vials. Subsequently, a 3 μL aliquot was injected into the LC-MS/MS system.

[2] = PO 6.25~50 mg/kg; cited from earlier work

Papp [1]	SMILES	time within which multiple peaks appeared [2]
10 to 22.5 ×10⁻⁶ cm/s	CC(C)NCC(O)COc1cccc2ccccc12 (centres unmarked) [propranolol, reference compound]	
	O=c1c(-c2ccc(O)cc2)coc2cc(O)cc(O)c12 [genistein]	≤ 6 h
